In PubChem BioAssay AID1963438 (Molecular Pharmacology Branch, DTP, NCI, 2024):
pIC50: −log10 of the molar value.

System: NCI-H510 multicellular tumor spheroid growth, % test/control
Assay: Anticancer human tumor NCI-H510 cell line growth inhibition [Asc];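 also: spheroids exposed to agents for 7 days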;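 as to viability, T/C: 100% = DMSO vehicle control wells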
Settings: for pIC50: curve of first compound; for viability, T/C: stronger effect = lower value
Summary of the method: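 Stromal components (HUVEC and hMSC) are co-assembled with the cancer cells into multicellular spheroids. Drugs are then added singly or paired, at concentrations falling by half-log increments from a clinically achievable maximum, capped at 10 microM without known Cmax.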

[1] = second compound 0.1 µM, first compound 0.00316 µM
[2] = second compound 0.1 µM, first compound 0.01 µM
[3] = second compound 0.1 µM, first compound 0.0316 µM
[4] = second compound 0.1 µM, first compound 0.1 µM
[5] = second compound 0.316 µM, first compound 0.00316 µM
[6] = second compound 0.316 µM, first compound 0.01 µM
[7] = second compound 0.316 µM, first compound 0.0316 µM
[8] = second compound 0.316 µM, first compound 0.1 µM
[9] = second compound 1 µM, first compound 0.00316 µM
[10] = second compound 1 µM, first compound 0.01 µM
[11] = second compound 1 µM, first compound 0.0316 µM
[12] = second compound 1 µM, first compound 0.1 µM
[13] = second compound 3.16 µM, first compound 0.00316 µM
[14] = second compound 3.16 µM, first compound 0.01 µM
[15] = second compound 3.16 µM, first compound 0.0316 µM
[16] = second compound 3.16 µM, first compound 0.1 µM
[17] = second compound 10 µM, first compound 0.00316 µM
[18] = second compound 10 µM, first compound 0.01 µM
[19] = second compound 10 µM, first compound 0.0316 µM
[20] = second compound 10 µM, first compound 0.1 µM
[21] = second compound 0.1 µM, first compound 0.316 µM
[22] = second compound 0.1 µM, first compound 1 µM
[23] = second compound 0.316 µM, first compound 0.316 µM
[24] = second compound 0.316 µM, first compound 1 µM
[25] = second compound 1 µM, first compound 0.316 µM
[26] = second compound 1 µM, first compound 1 µM
[27] = second compound 3.16 µM, first compound 0.316 µM
[28] = second compound 3.16 µM, first compound 1 µM
[29] = second compound 10 µM, first compound 0.316 µM
[30] = second compound 10 µM, first compound 1 µM

Row | Compound | pIC50 (second compound 0.1 µM) | pIC50 (second compound 0.316 µM) | pIC50 (second compound 1 µM) | pIC50 (second compound 3.16 µM) | pIC50 (second compound 10 µM) | viability, T/C [1] [%] | viability, T/C [2] [%] | viability, T/C [3] [%] | viability, T/C [4] [%] | viability, T/C [5] [%] | viability, T/C [6] [%] | viability, T/C [7] [%] | viability, T/C [8] [%] | viability, T/C [9] [%] | viability, T/C [11] [%] | viability, T/C [12] [%] | viability, T/C [15] [%] | viability, T/C [16] [%] | viability, T/C [19] [%] | viability, T/C [20] [%] | also measured
1 | NC1CCC(NC2CC2c2ccccc2)CC1 (stereo not given) + Cc1c(S(C)(=O)=O)c(-c2cc(F)cc(N3CCN(c4ccc(NS(=O)(=O)c5ccc(NC(CCN6CCC(C(=O)OCCCP(=O)(O)O)CC6)CSc6ccccc6)c(S(=O)(=O)C(F)(F)F)c5)cc4)CC3)c2)c(-c2ccc(Cl)cc2)n1C(C)C | < 7.00 | < 7.00 | < 7.00 | < 7.00 | < 7.00 | 74.1 | 87.7 | 67.5 | 90.4 | 76.9 | 66.5 | 78.4 | 97.9 | 63.8 | 64 | 59.6 | 80.6 | 69.9 | 102 | 36.1 | viability, T/C (second compound 0.1 µM, first compound 0.000316 µM): 88.8%; viability, T/C (second compound 0.1 µM, first compound 0.001 µM): 85%; viability, T/C (second compound 0.316 µM, first compound 0.000316 µM): 86.1%; viability, T/C (second compound 0.316 µM, first compound 0.001 µM): 85.8%; viability, T/C (second compound 1 µM, first compound 0.000316 µM): 116%; viability, T/C (second compound 1 µM, first compound 0.001 µM): 77.8%; viability, T/C [10]: 67.1%; viability, T/C (second compound 3.16 µM, first compound 0.000316 µM): 81%; viability, T/C (second compound 3.16 µM, first compound 0.001 µM): 80.2%; viability, T/C [13]: 74.8%; viability, T/C [14]: 67.1%; viability, T/C (second compound 10 µM, first compound 0.000316 µM): 66.8%; viability, T/C (second compound 10 µM, first compound 0.001 µM): 63.1%; viability, T/C [17]: 63.6%; viability, T/C [18]: 91%
2 | CCN1CCN(Cc2ccc(Nc3ncc(F)c(-c4cc(F)c5nc(C)n(C(C)C)c5c4)n3)nc2)CC1 + Cc1c(S(C)(=O)=O)c(-c2cc(F)cc(N3CCN(c4ccc(NS(=O)(=O)c5ccc(NC(CCN6CCC(C(=O)OCCCP(=O)(O)O)CC6)CSc6ccccc6)c(S(=O)(=O)C(F)(F)F)c5)cc4)CC3)c2)c(-c2ccc(Cl)cc2)n1C(C)C | < 6.00 | < 6.00 | 6.19 | 6.19 | 6.39 | 112 | 91.2 | 98 | 75.1 | 104 | 94.8 | 102 | 108 | 98.4 | 76.2 | 74.3 | 107 | 112 | 78.2 | 90.4 | viability, T/C [21]: 86.1%; viability, T/C [22]: 103%; viability, T/C [23]: 88.3%; viability, T/C [24]: 87.8%; viability, T/C [10]: 90.7%; viability, T/C [25]: 74.9%; viability, T/C [26]: 38.2%; viability, T/C [13]: 69.6%; viability, T/C [14]: 93%; viability, T/C [27]: 61.2%; viability, T/C [28]: 42.9%; viability, T/C [17]: 104%; viability, T/C [18]: 102%; viability, T/C [29]: 56.9%; viability, T/C [30]: 18.8%
3 | C=C(F)C(=O)N1CCN(c2nc(OCC3CCCN3C)nc3c2CCN(c2cccc4cccc(Cl)c24)C3)CC1CC#N (stereo not given) + Cc1c(S(C)(=O)=O)c(-c2cc(F)cc(N3CCN(c4ccc(NS(=O)(=O)c5ccc(NC(CCN6CCC(C(=O)OCCCP(=O)(O)O)CC6)CSc6ccccc6)c(S(=O)(=O)C(F)(F)F)c5)cc4)CC3)c2)c(-c2ccc(Cl)cc2)n1C(C)C | 6.16 | 6.04 | 6.12 | 6.02 | 6.26 | – | – | 103 | 85.7 | – | – | 105 | 95 | – | 113 | 125 | 118 | 110 | 86.2 | 103 | viability, T/C [21]: 86%; viability, T/C [22]: 33.7%; viability, T/C (second compound 0.1 µM, first compound 3.16 µM): 0.61%; viability, T/C (second compound 0.1 µM, first compound 10 µM): 0.12%; viability, T/C [23]: 86.2%; viability, T/C [24]: 48.9%; viability, T/C (second compound 0.316 µM, first compound 3.16 µM): 0.67%; viability, T/C (second compound 0.316 µM, first compound 10 µM): 0.11%; viability, T/C [25]: 99.8%; viability, T/C [26]: 34.8%; viability, T/C (second compound 1 µM, first compound 3.16 µM): 0.13%; viability, T/C (second compound 1 µM, first compound 10 µM): 0.11%; viability, T/C [27]: 94.1%; viability, T/C [28]: 52.2%; viability, T/C (second compound 3.16 µM, first compound 3.16 µM): 0.11%; viability, T/C (second compound 3.16 µM, first compound 10 µM): 0.14%; viability, T/C [29]: 80.6%; viability, T/C [30]: 15.6%; viability, T/C (second compound 10 µM, first compound 3.16 µM): 0.8%; viability, T/C (second compound 10 µM, first compound 10 µM): 0.19%
